Key:
[1] = LC-MS/MS quantitation of TAM and its metabolites in archival FFPE breast tumor tissue of TAM-treated patients; assay type: in vivo, human; settings: for Mean concentration in FFPE tissue, tumor recurrent patients: breast tumor recurrence patients (n = 16), mean 26 months on TAM; for Mean concentration in FFPE tissue, tumor recurrent patients / Mean concentration in FFPE tissue, tumor non-recurrent patients: 20 mg/day TAM for at least 6 months, mean ± SEM, Z-isomers quantitated; for Mean concentration in FFPE tissue, tumor non-recurrent patients: patients without tumor recurrence (n = 8), mean 22 months on TAM
Procedure: This study was approved by the Conjoint Health Research Ethics Board. FFPE tissue blocks were acquired from the archives of the pathology department at Foothills Medical Centre (Calgary, AB, Canada). Patients who had estrogen-receptor positive breast cancers diagnosed from 1990 to 2010 and treated with standard doses of TAM (20 mg/day of TAM for at least 6 months until time of biopsy with a treatment plan of 5 years on TAM) were selected for investigation. Patients were divided into two groups categorized as breast tumor recurrence (n = 16) and non-recurrence (n = 8).
Six 15 μm paraffin sections were removed from each FFPE tissue block and placed in a 1.5 mL eppendorf tube. The tissue sections were then deparaffinized by incubating with 1 mL of xylene for 10 min at room temperature. About 20 μL of I.S. was added followed by centrifugation at 20,000g for 5 min. Since xylene washes most of the TAM and metabolites from the paraffin sections, the supernatant was collected and transferred to a clean eppendorf tube. This procedure was repeated, and the two supernatants were combined followed by an SPE clean-up. Sample purification was performed via an SPE column vacuum manifold (Supelco, PA, USA). Samples were loaded onto the SPE columns previously conditioned with 3 mL of methanol and acetonitrile followed by a wash with 2 mL of 10 % methanol. The SPE cartridges were dried thereafter for 2 min, and the analytes were eluted with 2 mL of 5 % 50 mM ammonium acetate in methanol. Eluates were evaporated to dryness under a stream of nitrogen at 55 °C using a heating module obtained from Thermo Scientific/Pierce (Asheville, NC, USA). The dry extracts were then resuspended in 100 μL of acetonitrile/0.2 % formic acid (50:50).
Liquid chromatography was performed on a 1200 SL series LC system consisting of a binary pump, well-plate autosampler and thermostated column compartment (Agilent Technologies). Separation of TAM and metabolites was carried out using a Zorbax SB-C18 column (150 × 2.1 mm i.d., 3.5 μm particle size, Agilent Technologies) with a column temperature of 40 °C. Mobile phase consisted of 0.2 % formic acid and acetonitrile (60:40) at a flow rate of 0.2 mL/min with a gradient of 40–90 % of acetonitrile over 5 min. About 30 μL of the sample extract was injected onto the LC system. The total run time was 12 min including column equilibration.
MS detection of the analytes was accomplished by a 6410 triple-quadrupole mass spectrometer equipped with an electrospray ion source operating in the positive ion mode (Agilent Technologies). High purity nitrogen was used as the drying gas at a flow rate of 11 L/min with a gas temperature of 350 °C, and the nebulizer pressure was set at 35 psi. The capillary voltage was set at 4,000 V for each compound; however, the fragmentor voltages and the collision energies were operated at different settings for optimization of each analyte (Table 1). Quantitation was performed in multiple-reaction monitoring (MRM) mode, and the transitions of the precursors to product ions are summarized in Table 1. Data acquisition and analysis were performed using Mass Hunter Software v.B.02.01 (Agilent Technologies).

[2] = parameters: method as in PMID 17529893; settings: frozen tissues (~2 mg), breast cancer patients, single dose of 20 mg TAM, samples 5 h postdrug administration; cited from earlier work

Compound | Mean concentration in FFPE tissue, tumor recurrent patients [1] [ng/g] | Mean concentration in FFPE tissue, tumor non-recurrent patients [1] | Detection in FFPE tissue of tumor recurrent patients ([1]; some of the tumor recurrent patients (data not shown), possibly below the detection limit of the assay) | Average concentration in frozen tissue [2] [ng/g] | Range of concentration in frozen tissue [2] [ng/g]
CC/C(=C(\c1ccc(O)cc1)c1ccc(OCCNC)cc1)c1ccccc1 [Endoxifen, N-desmethyl-4-hydroxy-tamoxifen] | 19.2 ± 5.08 | 94.6 ± 41.0 ng/g | not found |  | 
CC/C(=C(\c1ccccc1)c1ccc(OCCNC)cc1)c1ccccc1 [DMT, N-desmethyl-tamoxifen] | 324 ± 103 | 1,256 ± 282.8 ng/g |  | 23.3 | 0 to 643
CC/C(=C(\c1ccccc1)c1ccc(OCCN(C)C)cc1)c1ccccc1 [TAM, Tamoxifen] | 122 ± 25.2 | 147 ± 51.7 ng/g |  | 118 | 
